The values that follow come from patent publication US7470724B2, “Phosphonate compounds having immuno-modulatory activity” (Gilead Sciences, Inc., priority 2003, dated 2008).

The data set can be described thus: Pro-drug cleavage by human PBMC extracts. The format is in vitro ADME. As to conditions: cleavage rate per μg protein; 30 μM substrate, pH 6.5, 37° C., 10-120 minutes; disappearance of pro-drug by HPLC at 260 nm. Here is the method:
Fresh human PBMCs were obtained from patients undergoing leukophoresis; cells were shipped in plasma and processed within 26 h of draw. Purification was achieved using the Ficoll-Paque method: PBMC cells were harvested by centrifugation at 1200×g for 5 minutes and washed three times by re-suspension in RBC lysis buffer (155 mM NH4Cl, 0.1 mM EDTA, 10 mM KHCO3). Washed cells were suspended in lysis buffer (0.2×10^9 cells in 1 ml of 10 mM Tris, pH 7.4, 150 mM NaCl, 20 mM CaCl2, 1 mM DTT and 1% NP40) and incubated on ice for 20 minutes. The PBMC crude extract was centrifuged at 1000×g for 30 min to remove unlysed cells and the supernatant at 100,000×g for 1 h. The 100,000×g supernatant (PBMC Extract: P0) was harvested, snap frozen in liquid nitrogen and stored at −70° C.
Reaction mixtures contained 25 mM MesNa (pH 6.5), 100 mM NaCl, 1 mM DTT, 0.1% NP-40, 30 μM substrate, and varying amounts of enzyme in a final volume of 100 μl. The enzymatic reaction is performed at 37° C. for 10-120 minutes and stopped at 3-4 individual time points by adding 180 μl of ice cold methanol. Samples are incubated @−20° C. for 30 min, and centrifuged 13,000 RPM for 30 min (@ 4° C.). The supernatant is transferred to a 96 well plate and evaporated under vacuum using a speedvac. The precipitate is dissolved in 100 μl of 20 mM CH3COONH4+5% AcCN. The disappearance of pro-drug is measured by HPLC, monitoring at 260 nm. The specific activity of the PBMC Extract against the prodrugs tested is defined as: v (cleavage rate)/μg protein=pmoles/min/μg.
Consider `CCOC(=O)C(C)NP(=O)(CCC(C)(C)CCn1cnc2c(=O)[nH]c(N)nc21)Oc1ccccc1` (stereo not shown) [Example 130-1], for which the “Human PBMC extract specific activity” value is 3.48 pmol/min/µg.
Next, `CCOC(=O)C(C)NP(=O)(CCC(C)(C)CCn1cnc2c(=O)[nH]c(N)nc21)N[C@@H](C)C(=O)OCC` (stereo partly shown) [Example 130-2]: 0.65 pmol/min/µg.
Take `CCOC(=O)C(C)NP(=O)(/C=C/c1ccccc1Cn1cnc2c(=O)[nH]c(N)nc21)Oc1ccccc1` (stereo not shown) [Example 133-1]: the “Human PBMC extract specific activity” value turned out to be 4.9 pmol/min/µg.
As to `CCOC(=O)C(C)NP(=O)(/C=C/c1ccccc1Cn1cnc2c(=O)[nH]c(N)nc21)N[C@@H](C)C(=O)OCC` (stereo partly shown) [Example 133-2], the “Human PBMC extract specific activity” value turned out to be 0.38 pmol/min/µg.
